Experiment: Encapsulation of drug within HA-decorated nanoparticles (FIG. 1, visual)
Type: physicochemical
Conditions: FIG. 1B/1C, colour of solution
Experimental: The dye is however stably encapsulated in crosslinked HA-decorated nanoparticles (right).
MTX and MMTX encapsulation: A suspension of modified HA (1 mg/mL), crosslinker (2 mg/mL) and Irgacure 2959 (0.5 mg/mL) in water (1 mL) was stirred at RT for 30 mins and purged with argon for 10 mins. To this solution, MTX (100 μL, 6 mg/mL) or MMTX (100 μL, 6 mg/mL) or DMSO 100 μL (control) was added. The reaction mixture was exposed to UV irradiation for 10 min. Afterwards, the free drug was removed by dialyzing the solution against DI water for 48 h and filtered through a hydrophilic membrane (pore size: 0.45 μm). The resulting solution was used to estimate the size of the drug loaded PNPs using dynamic light scattering.

Structure (SMILES): CN(Cc1cnc2nc(N)nc(N)c2n1)c1ccc(C(=O)N[C@@H](CCC(=O)O)C(=O)O)cc1 [MTX, Methotrexate]
- encapsulation within HA-decorated nanoparticles: no encapsulation is discernible

— US12186319B2, “Crosslinked polymer nanoparticles for targeted cellular uptake and therapeutics, and compositions and methods thereof” (University of Massachusetts, priority 2017, dated 2025)
